Earlier results in US20170216273A1, “Nicotine Derivatives and Methods of Use” (priority 2014, published 2017).

Conditions: approximately; no test described

Row | SMILES | potency relative to the L isomer
1 | CN1CCC[C@H]1c1cccnc1 (racemic) [Racemic nicotine] | 70-80 % of the L isomer's potency
2 | CN1CCC[C@@H]1c1cccnc1 (single isomer, unassigned) [D isomer of nicotine, D-nicotine] | 25-30 % of the L isomer's potency
